Test results: DBAASP
In brackets after ≈: the same amount, converted by molar mass. Each block holds one compound with its values, some of them ahead of it.

What was measured:
Assay in all cases: ≥ marks a high value that may be exact or a test limit, other limits are often not marked, values filed in µg/mL are converted to µM
Candida glabrata 090902 = test system: Candida glabrata 090902
[1] = test system: Enterobacter cloacae CGMCC 1.57
[2] = test system: Enterococcus faecalis 981
[3] = test system: Enterococcus faecium 091299
[4] = test system: Escherichia coli ATCC 25922
[5] = test system: Klebsiella pneumoniae 08040724
[6] = test system: Nocardia asteroides 201118
[7] = test system: Psychrobacter faecalis X29
[8] = test system: Staphylococcus aureus ATCC 25923
[9] = test system: Bacillus subtilis CMCC 63501
[10] = test system: Enterococcus faecalis ATCC 29212
[11] = test system: Pseudomonas aeruginosa ATCC 27853
[12] = test system: Salmonella enterica subsp. enterica serovar Pullorum C79-13
[13] = test system: Salmonella enterica subsp. enterica serovar Typhimurium C77-31
[14] = test system: Staphylococcus aureus ATCC 29213
[15] = test system: Staphylococcus epidermidis ATCC 12228
[16] = test system: Aspergillus flavus ATCC 24109
[17] = test system: Aspergillus fumigatus ATCC 1022
[18] = test system: Aspergillus niger ATCC 9142
[19] = test system: Bacillus subtilis ATCC 6051
[20] = test system: Candida albicans ATCC 10231
[21] = test system: Candida glabrata ATCC 90030
[22] = test system: Candida krusei ATCC 28870
[23] = test system: Cryptococcus neoformans ATCC 2517
[24] = test system: Microsporum canis PTCC 5069
[25] = test system: Saccharomyces cerevisiae PTCC 5052
[26] = test system: Trichophyton mentagrophytes ATCC 32510
[27] = test system: Cronobacter muytjensii ATCC 51329
[28] = test system: Cronobacter sakazakii ATCC BAA-894
[29] = test system: Cronobacter sakazakii DPC 6440
[30] = test system: Cronobacter sakazakii DSM 4485
[31] = test system: Escherichia coli NCIMB 11843
[32] = test system: Klebsiella pneumoniae NCIMB 13218
[33] = test system: Pseudomonas fluorescens NCIMB 9046
[34] = test system: Salmonella enterica subsp. enterica serovar Typhimurium LT2
[35] = test system: Staphylococcus aureus NCTC 8325-4
[36] = test system: Staphylococcus aureus Newman
[37] = test system: Staphylococcus aureus RF122
[38] = test system: Staphylococcus aureus RN4220
[39] = test system: Staphylococcus aureus SA113
[40] = test system: Acinetobacter baumannii ABA1
[41] = test system: Acinetobacter baumannii ABA2
Acinetobacter baumannii = test system: Acinetobacter baumannii
Escherichia coli ECO1 = test system: Escherichia coli ECO1
Escherichia coli ECO2 = test system: Escherichia coli ECO2
Escherichia coli = test system: Escherichia coli
[42] = test system: Porphyromonas gingivalis ATCC 33277
[43] = test system: Pseudomonas aeruginosa PAER10
[44] = test system: Pseudomonas aeruginosa PAER1
[45] = test system: Pseudomonas aeruginosa PAER4
[46] = test system: Pseudomonas aeruginosa PAER7
[47] = test system: Pseudomonas aeruginosa PAO1
Pseudomonas aeruginosa = test system: Pseudomonas aeruginosa
[48] = test system: Salmonella enterica serovar Typhimurium
[49] = test system: Staphylococcus aureus S5375
[50] = test system: Staphylococcus aureus SAU2
[51] = test system: Staphylococcus aureus SAU5
[52] = test system: Staphylococcus aureus SAU7
Staphylococcus aureus = test system: Staphylococcus aureus

MIC (Candida glabrata 090902): 6.3 µM (≈ 16.6 µg/mL)
MIC [1]: ≥ 100 µM
MIC [2]: 6.3 µM (≈ 16.6 µg/mL)
MIC [3]: ≥ 50 µM
MIC [4]: 100 µM (≈ 263 µg/mL)
MIC [5]: ≥ 100 µM
MIC [6]: 3.1 µM (≈ 8.16 µg/mL)
MIC [7]: 12.5 µM (≈ 32.9 µg/mL)
MIC [8]: 6.3 µM (≈ 16.6 µg/mL)
Compound: CC[C@H](C)[C@@H]1NC(=O)[C@H](CCCCN)NC(=O)[C@@H](NC(=O)[C@@H](NC(=O)[C@@H](NC(=O)[C@H](CCCCN)NC(=O)[C@@H]2CCCN2C(=O)[C@H](CC(C)C)NC(=O)[C@H](Cc2ccccc2)NC(=O)[C@H](CC(N)=O)NC(=O)[C@H](C)NC(=O)[C@H](C)NC(=O)[C@H](CC(C)C)NC(=O)CNC(=O)[C@H](C)NC(=O)[C@H](CC(C)C)NC(=O)[C@H](CCSC)NC(=O)[C@@H]2CCCN2C(=O)[C@H](CC(C)C)NC(=O)[C@@H](N)Cc2ccccc2)[C@@H](C)CC)[C@@H](C)CC)CSSC[C@@H](C(=O)O)NC(=O)[C@H](CCCCN)NC(=O)[C@H](CCCCN)NC(=O)[C@H]([C@@H](C)O)NC1=O [FLPMLAGLAANFLPKIICKITKKC]

MIC [9]: 4 µM (≈ 5.78 µg/mL)
MIC [10]: 32 µM (≈ 46.3 µg/mL)
MIC [4]: 4 µM (≈ 5.78 µg/mL)
MIC [11]: > 128 µM
MIC [12]: 16 µM (≈ 23.1 µg/mL)
MIC [13]: ≥ 32 µM
MIC [14]: 32 µM (≈ 46.3 µg/mL)
MIC [15]: 16 µM (≈ 23.1 µg/mL)
Compound: NC(=O)[C@H](Cc1ccccc1)NC(=O)[C@H](CCCN=C(N)N)NC(=O)[C@H](CS)NC(=O)[C@H](Cc1ccccc1)NC(=O)[C@H](CCCN=C(N)N)NC(=O)[C@H](CCCN=C(N)N)NC(=O)[C@H](CCCN=C(N)N)NC(=O)[C@H](CS)NC(=O)[C@H](CCCN=C(N)N)NC(=O)[C@@H](N)Cc1ccccc1 [FRCRRRFCRF]

MIC [16]: ≥ 675 µM
MIC [17]: ≥ 84.4 µM
MIC [18]: ≥ 675 µM
MIC [19]: ≥ 172 µM
MIC [20]: 84.4 µM (≈ 125 µg/mL)
MIC [21]: ≥ 675 µM
MIC [22]: ≥ 338 µM
MIC [23]: ≥ 675 µM
MIC [10]: 84.4 µM (≈ 125 µg/mL)
MIC [4]: 84.4 µM (≈ 125 µg/mL)
MIC [24]: ≥ 675 µM
MIC [11]: > 675 µM
MIC [25]: ≥ 84.4 µM
MIC [8]: > 675 µM
MIC [26]: ≥ 675 µM
Compound: CC[C@H](C)[C@H](NC(=O)[C@H](CCCCN)NC(=O)[C@H](CCCCN)NC(=O)[C@@H](NC(=O)[C@@H](NC(=O)[C@H](CC(=O)O)NC(=O)[C@H](Cc1ccccc1)NC(=O)[C@H](CC(C)C)NC(=O)CN)[C@@H](C)CC)[C@@H](C)CC)C(=O)N[C@@H](C)C(=O)N[C@@H](CCC(=O)O)C(=O)N[C@@H](CO)C(=O)N[C@@H](Cc1ccccc1)C(=O)O [GLFDIIKKIAESF]

MIC [27]: ≥ 1250 µM
MIC [28]: ≥ 1250 µM
MIC [29]: ≥ 1250 µM
MIC [30]: ≥ 1250 µM
MIC [31]: ≥ 1250 µM
MIC [32]: ≥ 1250 µM
MIC [33]: ≥ 1250 µM
MIC [34]: ≥ 1250 µM
MIC [35]: ≥ 1250 µM
MIC [36]: ≥ 1250 µM
MIC [37]: ≥ 1250 µM
MIC [38]: ≥ 1250 µM
MIC [39]: ≥ 625 µM
Compound: CC(C)C[C@H](NC(=O)[C@H](CCCN=C(N)N)NC(=O)[C@H](C)NC(=O)[C@H](CC(N)=O)NC(=O)[C@H](CCC(=O)O)NC(=O)[C@H](CC(N)=O)NC(=O)[C@H](CC(C)C)NC(=O)[C@@H](N)C(C)C)C(=O)O [VLNENARL]

MIC [40]: 5.25 µM (≈ 8 µg/mL)
MIC [41]: 7.42 µM (≈ 11.3 µg/mL)
MIC (Acinetobacter baumannii): 10.5 µM (≈ 16 µg/mL)
MIC [4]: 10.5 µM (≈ 16 µg/mL)
MIC (Escherichia coli ECO1): 3.71 µM (≈ 5.66 µg/mL)
MIC (Escherichia coli ECO2): 3.71 µM (≈ 5.66 µg/mL)
MIC (Escherichia coli): 42 µM (≈ 64 µg/mL)
MIC [42]: 5.25 µM (≈ 8 µg/mL)
MIC [43]: 2.62 µM (≈ 4 µg/mL)
MIC [44]: 3.71 µM (≈ 5.66 µg/mL)
MIC [45]: 10.5 µM (≈ 16 µg/mL)
MIC [46]: 21 µM (≈ 32 µg/mL)
MIC [47]: 10.5 µM (≈ 16 µg/mL)
MIC (Pseudomonas aeruginosa): 10.5 µM (≈ 16 µg/mL)
MIC [48]: 5.25 µM (≈ 8 µg/mL)
MIC [8]: 10.5 µM (≈ 16 µg/mL)
MIC [49]: 14.8 µM (≈ 22.6 µg/mL)
MIC [50]: 21 µM (≈ 32 µg/mL)
MIC [51]: 21 µM (≈ 32 µg/mL)
MIC [52]: 21 µM (≈ 32 µg/mL)
MIC (Staphylococcus aureus): 14.8 µM (≈ 22.6 µg/mL)
Compound: CC[C@H](C)[C@H](NC(=O)[C@H](CCCN=C(N)N)NC(=O)[C@H](Cc1c[nH]c2ccccc12)NC(=O)[C@H](CCC(N)=O)NC(=O)[C@@H](N)C(C)C)C(=O)N[C@@H](CCCN=C(N)N)C(=O)N[C@H](C(=O)N[C@@H](C)C(=O)N[C@H](C(=O)N[C@H](C(=O)N[C@@H](CCCN=C(N)N)C(=O)N[C@@H](CCCCN)C(=O)O)[C@@H](C)CC)C(C)C)C(C)C [VQWRIRVAVIRK]
